Reference: patent publication US6492137B1, “Response element compositions and assays employing same” (The Salk Institute for Biological Studies, priority 1989, dated 2002)

Key:
[1] = tested on: endogenous RA receptor; test: Delta-MTV-CAT constructs, RA induction in CV-1 cells without cotransfected RAR expression vector; assay type: cell-based, monkey
Protocol: (§1) Cells were transfected in 10 cm dishes with 10 μg of DNA containing 5 μg of reporter plasmid, 1-2 μg of either RSV-LUC (a), or RSV-βGAL or pCH110 (c and d), pGEM4 as carrier DNA, and for the experiments shown in a and d, 1 μg of RSV-RAR expression vector or the same amount of an RSV vector generating a nonsense transcript. Cells were harvested 1 day after addition of retinoic acid. All CAT assays represent equivalent amounts of β-galactosidase activity; β-GAL assays were normalized to luciferase activity.

[2] = target: T1, RAR (Homo sapiens, UniProt P10276); test: Delta-MTV constructs, RA induction in CV-1 cells with cotransfected RAR expression vector; assay type: cell-based; settings: Delta-MTV-CAT constructs; CV-1 cells
T1 construct: expressed in transfected cells; host or cells: CV-1 (monkey kidney)
T1 sequence (P10276 1-462): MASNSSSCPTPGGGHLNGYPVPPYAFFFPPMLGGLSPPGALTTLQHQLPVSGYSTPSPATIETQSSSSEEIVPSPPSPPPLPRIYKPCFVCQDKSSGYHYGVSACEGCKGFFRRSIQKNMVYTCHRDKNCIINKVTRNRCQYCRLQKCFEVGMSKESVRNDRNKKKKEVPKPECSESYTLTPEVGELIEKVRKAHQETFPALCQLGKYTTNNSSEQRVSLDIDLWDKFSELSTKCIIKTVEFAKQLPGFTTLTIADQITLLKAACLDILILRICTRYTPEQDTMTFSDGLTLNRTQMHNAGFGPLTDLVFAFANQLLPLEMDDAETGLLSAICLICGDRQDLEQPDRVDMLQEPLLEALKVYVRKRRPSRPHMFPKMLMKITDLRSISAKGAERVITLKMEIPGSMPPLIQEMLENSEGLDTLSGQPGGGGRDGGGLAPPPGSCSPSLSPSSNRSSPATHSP
Protocol: (§2) Inspection of the sequences of βRE1, βRE2, and βRE3 (see FIG. 2b) identifies a tandem repeat of the 6 bp motif. The center to center separation of 11 bp between these repeats is one turn of the DNA helix. […] Apparently, a single half site element of the RARβ gene would reciprocally be responsive to the TR, ER, and/or other members of the receptor superfamily.
as §1

[3] = target: T2, GR (Homo sapiens, UniProt P04150); test: Cotransfection of GR with construct βRE1 in CV-1 cells; assay type: cell-based; settings: absence or addition of the appropriate ligand
T2 construct: expressed in transfected cells; host or cells: CV-1 (monkey kidney)
T2 sequence (P04150 1-777): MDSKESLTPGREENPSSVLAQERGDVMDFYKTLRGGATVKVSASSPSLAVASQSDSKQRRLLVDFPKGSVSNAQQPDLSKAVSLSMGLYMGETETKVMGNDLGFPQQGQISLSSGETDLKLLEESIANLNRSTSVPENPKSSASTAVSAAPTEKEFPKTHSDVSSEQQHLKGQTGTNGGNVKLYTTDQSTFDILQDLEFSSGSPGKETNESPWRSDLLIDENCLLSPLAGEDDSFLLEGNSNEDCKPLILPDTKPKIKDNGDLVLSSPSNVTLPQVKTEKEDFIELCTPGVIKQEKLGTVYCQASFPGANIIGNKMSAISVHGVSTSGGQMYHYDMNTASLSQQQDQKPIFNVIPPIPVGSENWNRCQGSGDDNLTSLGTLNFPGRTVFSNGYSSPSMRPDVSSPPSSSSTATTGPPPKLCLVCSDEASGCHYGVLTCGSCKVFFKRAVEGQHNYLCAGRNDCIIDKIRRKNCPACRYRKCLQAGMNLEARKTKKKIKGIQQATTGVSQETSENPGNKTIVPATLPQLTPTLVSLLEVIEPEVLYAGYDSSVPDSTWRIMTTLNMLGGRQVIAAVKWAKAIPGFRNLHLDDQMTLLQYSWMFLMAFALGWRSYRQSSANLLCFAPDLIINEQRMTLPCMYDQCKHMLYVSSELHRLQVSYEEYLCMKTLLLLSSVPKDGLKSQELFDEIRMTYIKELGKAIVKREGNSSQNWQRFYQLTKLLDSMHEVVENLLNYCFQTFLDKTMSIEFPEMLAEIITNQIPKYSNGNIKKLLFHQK
From the text: as §2

[4] = target: T3, vitamin D receptor (VD3R) (Homo sapiens, UniProt P11473); test: Cotransfection of vitamin D receptor with construct βRE1 in CV-1 cells; assay type: cell-based; settings: cognate ligand
T3 construct: expressed in transfected cells; host or cells: CV-1 (monkey kidney)
T3 sequence (P11473 1-427): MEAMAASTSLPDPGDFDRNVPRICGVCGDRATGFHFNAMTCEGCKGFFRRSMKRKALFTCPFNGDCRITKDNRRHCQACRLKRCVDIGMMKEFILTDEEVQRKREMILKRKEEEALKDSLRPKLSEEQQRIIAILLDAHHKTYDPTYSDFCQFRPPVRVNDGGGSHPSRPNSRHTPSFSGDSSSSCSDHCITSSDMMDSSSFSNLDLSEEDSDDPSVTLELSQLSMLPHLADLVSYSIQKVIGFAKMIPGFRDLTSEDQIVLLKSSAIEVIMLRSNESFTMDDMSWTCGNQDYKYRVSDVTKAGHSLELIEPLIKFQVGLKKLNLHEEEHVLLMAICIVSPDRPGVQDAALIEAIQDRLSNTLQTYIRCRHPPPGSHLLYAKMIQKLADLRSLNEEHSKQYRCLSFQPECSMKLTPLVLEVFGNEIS
From the text: as §2

[5] = target: T4, ER (Homo sapiens, UniProt P03372); test: Cotransfection of ER with construct βRE1 in CV-1 cells; assay type: cell-based; settings: absence or addition of the appropriate ligand
T4 construct: expressed in transfected cells; host or cells: CV-1 (monkey kidney)
T4 sequence (P03372 1-595): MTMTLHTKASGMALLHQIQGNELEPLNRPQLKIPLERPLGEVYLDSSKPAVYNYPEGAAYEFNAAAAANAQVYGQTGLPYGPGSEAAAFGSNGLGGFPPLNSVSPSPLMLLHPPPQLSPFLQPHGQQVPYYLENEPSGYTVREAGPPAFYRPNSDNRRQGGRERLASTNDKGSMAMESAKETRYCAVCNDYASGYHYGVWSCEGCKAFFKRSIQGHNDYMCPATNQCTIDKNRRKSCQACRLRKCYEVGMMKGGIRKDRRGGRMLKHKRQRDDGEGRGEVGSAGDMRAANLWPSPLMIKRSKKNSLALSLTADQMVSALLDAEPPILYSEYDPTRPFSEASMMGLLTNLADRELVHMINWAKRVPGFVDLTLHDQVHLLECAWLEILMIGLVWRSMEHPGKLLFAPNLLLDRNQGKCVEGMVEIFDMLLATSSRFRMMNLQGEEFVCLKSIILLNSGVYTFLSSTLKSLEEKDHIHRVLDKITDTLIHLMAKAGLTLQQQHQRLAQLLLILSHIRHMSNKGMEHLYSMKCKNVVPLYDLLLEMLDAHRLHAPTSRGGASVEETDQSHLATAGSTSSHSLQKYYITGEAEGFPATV
From the text: as §2

[6] = tested on: TR; test: Cotransfection of TR with construct βRE1 in CV-1 cells; assay type: cell-based; settings: cognate ligand
From the text: as §2

[7] = target: T5, RARα (Homo sapiens, UniProt P10276); test: ΔSV-CAT reporter cotransfection assay in CV-1 cells with RARα expression plasmid, ±RA; assay type: cell-based; design: expressed in transfected cells; host or cells: CV-1 (monkey kidney); settings: RA 1 μM
T5 sequence (P10276 1-462): T1 sequence (P10276 1-462)
From the text: Receptor expression plasmids used in the following cotransfection assays have been described previously (pRShTRβ [see Thompson, et al., Proc. Natl. Acad. Sci. U.S.A. 86: 3494-3498 (1989)]; pRShRARα [see Giguere, et al., Nature 330: 624-629 (1987)]; pRShRARβ and pRshRARγ [see Ishikawa, et al., Mol. Endocrinol, 4: 837-844 (1990)]; and pRShVDR, [Schule, et al., Cell 61: 497-504 (1990)]. A basal reporter plasmid ΔSV-CAT was constructed by replacing the TK promoter in TK-CAT [Damm, et al., Nature 339: 593-597 (1989)] with the SphI-HindIII fragment of the SV40 early promoter. All of the recombinant CAT reporter plasmids used herein harbor a single copy of the indicated oligonucleotides at the unique HindIII site upstream of the SV40 promoter. Identity of the inserted oligonucleotides was confirmed by sequencing. To improve production of receptor proteins in COS cells, a new eukaryotic expression vector pCMX was prepared by modifying the plasmid CDM8 [Seed, B., Nature 329: 840-842 (1987)]. The CDM8 was cut with MluI and StuI in order to release the DNA fragment encoding the CMV/T7 promoter, SV40 small t intron/poly A signal, polyoma virus enhancer/origin, and SV40 enhancer/origin. The resulting fragment was ligated to a larger fragment of PvuII-digested PUC19. An internal deletion was introduced between unique BamHI and BclI sites present in the DCM8 portion. The stuffer sequence flanked by XbaI sites was replaced with a synthetic polylinker coding for 5′-KpnI/Asp718-EcoRV-BamHI -MscI-NheI-3′, followed by a stretch of 5′-[…]-3′ (SEQ ID NO:48) which can function as a universal termination signal for protein translation. The coding sequence of the luciferase [de Wet, et al., Mol. Cell. Biol. 7: 725-737 (1987)] and human TRβ, RARα, and VDR was placed in the polylinker region of the pCMX, generating pCMX-LUC, Pcmx-Htrβ, pCMX-hRARα, and pCMX-hVDR, respectively. The translation start site of the RARα was modified to […] by attaching the synthetic linker encoding a consensus translation start signal [Hollenberg, et al., Cell 55: 899-906 (1988)]. […]

[8] = target: T6, VDR (Homo sapiens, UniProt P11473); test: Gel retardation DNA-binding assay with VDR-expressing COS cell extracts; design: expressed in transfected cells; host or cells: COS cells (whole-cell extract); settings: VDR COS cell extract
T6 sequence (P11473 1-427): T3 sequence (P11473 1-427)
Protocol: For DNA binding assays, COS cells were cultured in DMEM with 10% calf bovine serum and transfected by the calcium phosphate method with 20 μg of the pCMX receptor expression plasmid for 6 hours followed by a glycerol shock. After incubating the transfected COS cells for another 48 hours, the cells were harvested to prepare extracts for the DNA binding assay, carried out as described by Damm et al., Nature 339: 593-597 (1989). The extracts were made in 20 mM HEPES (pH 7.4), 0.4 M KCl, 2 mM DTT and 20% glycerol. A similar method was employed to prepare a whole cell extract from F9 stem cells. For the binding, 5 μg (COS) or 10 μg (F9) of proteins was incubated on ice for 20 minutes, first in 20 mM HEPES, 80 mM KCl, 1 mM DTT, 0.1% NP40, 2.5 μg of poly dI/dC, and 10% glycerol (cold competitor oligonucleotides, when included, were added during this pre-incubation period). Then 40 fmole of ^32P-labeled oligonucleotide probe (1-2×10^5 cpm, prepared by filling-in reaction using Klenow polymerase in the presence of α-^32P-dCTP) was added to the reaction mixture, followed by incubation at room temperature for 30 minutes. The receptor-DNA complexes were resolved by electrophoresis through 5% polyacrylamide gel containing 5% glycerol at 6 V/cm at room temperature.
Finally, in vitro DNA-binding assays were carried out with COS cell extracts containing one of these receptor proteins.

Substance: 5′-AAGCTTAAG-GGTTCA-CCGAA-AGTTCA-CACGCATATATTAGCTT-3′ (SEQ ID NO:5) (AAGCTTAAGGGTTCACCGAAAGTTCACTCGCATATATTAGCTT; DNA, backbone not given here) [βRE1, oligonucleotide including the β retinoic acid response element]
- RA-dependent induction in the absence of cotransfected RAR expression vector [1]: robust RA-dependent induction
- increase of induction by cotransfection of RAR-alpha expression vector [2]: two-fold
- activation with cotransfected GR [3]: failed to result in appreciable activation
- activation with cotransfected vitamin D receptor, fold less [4]: 10- to 20 fold
- activation with cotransfected ER [5]: failed to result in appreciable activation
- activation with cotransfected TR, fold less [6]: 10- to 20 fold

Substance: DR-3: perfect tandem repeat of AGGTCA hexamers separated by 3 nucleotides (SEQ ID NO:25) (AGCTTCAGGTCAAGGAGGTCAGAGAGCT; DNA, backbone not given here; double-stranded DNA response element with agct overhangs, cloned into reporter)
- RA response (in words) [7]: clear activity
- VDR binding to labeled oligonucleotide probe [8]: specific protein-DNA complex
